The source of these data is patent US8454938B2, “Treatment of respiratory diseases” (Solaeromed Inc., priority 2005, dated 2013).

For this assay, the system named is allergic bronchoconstriction in Brown Norway rats. The assay is described as follows: Allergic asthma model: OVA-sensitized and challenged Brown Norway rats, whole body plethysmography (Penh). Format: in vivo, Brown Norway rat. Here is the method:
An animal model of allergic asthma was developed by sensitizing Brown Norway rats (BNR) to ovalbumin (OVA) and subsequently challenging them with the same allergen.
Male Brown Norway rats (BN/SsdNhsd) 150-199 g were used. A stock solution prepared containing the following ingredients: 10 mL 0.9% of sterile saline solution, 100 μL of ovalbumin solution 1 mg/mL in saline, 1.5 g Al(OH)3 and 10 μL Bordetella Pertussis purified toxin stock solution 500 ng/mL. The solution is mixed thoroughly but not vortexed and then injected intraperitoneally into each rat using a 1 cc syringe and 25-gauge needle.
The rat is placed in the whole body plethysmograph/chamber for approximately 30 minutes in order to calm down. Baseline pulmonary function is recorded for 30 minutes. A solution of ovalbumin 5% in saline is aerosolized for 5 minutes using an ultrasonic nebulizer from Buxco®. The pulmonary function is recorded for 6 hrs during which the effects of different treatments on airway resistance were evaluated.
A whole body plethysmograph from Buxco® was used to monitor pulmonary function and the effect of perfluorocarbon fluids (PFCs) and/or different gas mixture containing CO2 on constricted airways. The plethysmograph consists of a chamber with a pressure transducer along with humidity and temperature probes connected to an amplifier Max II, which is connected to a personal computer and managed by BioSystem XA software. In addition, there are two flow regulators to pump the air or CO2 containing gas mixture in and out of the chamber, and an ultrasonic nebulizer. The primary advantage of the Buxco® methodology is that it is non-invasive and minimizes stress, with animals allowed to freely roam within the measuring chamber. The evaluation of bronchoconstriction was achieved using the Penh (enhanced pause) (an index of airway obstruction) [see Hamelmann et al., (1997) Noninvasive measurement of airway responsiveness in allergic mice using barometric plethysmography, Am J Respir Crit Care Med […] September; 156(3 Pt 1):766-775, incorporated herein by reference]. […]
A gas mixture containing air and CO2 (2, 5, 8, 10 and 20%, respectively, by volume) was delivered to the plethysmograph chamber as described above. The gas was monitored (O2 and CO2) using a gas analyzer from Buxco® and pulmonary function was recorded during and after cessation of the treatment. All treatments were delivered during the late phase response to OVA challenge. […]
FC-43 is placed in the Arcotech dual chamber jet nebulizer and driven by a gas mixture containing air and 5% CO2 by volume. The concentration of FC-43 was determined as outlined above and averaged about 39 mg/liter. The treatment was delivered for 10 minutes. Two minutes after cessation of the first treatment, salbutamol (1 mg/ml) was delivered for 5 minutes using an ultrasonic nebulizer.
FC-77 is placed in the Arcotech dual chamber jet nebulizer and driven by a gas mixture containing air and 5% CO2 by volume. The treatment was delivered for 10 minutes. For technical reasons pulmonary function was evaluated immediately after cessation of the treatment.
Perfluorodecalin is placed in the Arcotech dual chamber jet nebulizer and driven by a gas mixture containing air and 5% CO2 by volume. The treatment was delivered for 10 minutes. For technical reasons pulmonary function was evaluated immediately after cessation of the treatment.
Perfluorooctylbromide is placed in the Arcotech dual chamber jet nebulizer and driven by a gas mixture containing air and 20% CO2 by volume. The treatment was delivered for 10 minutes. For technical reasons pulmonary function was evaluated immediately after cessation of the treatment.
A mixture of approximately equal amounts of FC-43 and FC-77 was placed in the Arcotech dual chamber jet nebulizer and driven by a gas mixture containing air and 5% CO2 by volume. The treatment was delivered for 10 minutes. […]

As to `O=C=O` [CO2, carbon dioxide], the “bronchodilation by CO2 alone” value (2%, 5%, 8%, 10% and 20% CO2 by volume, balance air) is listed as “acts as a bronchodilator”. Moreover, the duration of bronchodilation entry (20% CO2 in air alone) was “approximately 2 minutes”. The “relaxation of constricted airways (percent reduction of bronchoconstriction), comparison between CO2 concentrations” value (20% and 8% CO2 compared with 2% and 5% CO2 in air, groups of rats) is “significantly (P<0.05) higher”.
Turning to `CC(C)(C)NCC(O)c1ccc(O)c(CO)c1` (stereo not shown) [salbutamol], under “salbutamol 1 mg/ml alone”, the “drop in Penh” value was “approximately 60%” and the “duration of drop in Penh before returning to pretreatment levels” value was 5 min. For the same molecule, the duration of response result (salbutamol 1 mg/ml given after PFC/CO2 treatment) is on record as “never returned to pre-treatment levels”. For the same molecule, the “drop in Penh (response)” value (salbutamol 1 mg/ml given after PFC/CO2 treatment (FC-43 with 5% CO2 in air, 10 minutes)) is reported as “approximately 70%”.
